From paper PMC9650711, “Hydroxyl-Rich Hydrophilic Endocytosis-Promoting Peptide with No Positive Charge” (Journal of the American Chemical Society, 2022) come the findings set out here.

For one data set, the target named is T1, full-length FIBCD1 (Homo sapiens, UniProt Q8N539).
T1 construct: We overexpressed full-length FIBCD1 in CHO cells, extracted and purified the protein; host or cells: ExpiCHO (CHO) cells
T1 sequence (Q8N539 1-461): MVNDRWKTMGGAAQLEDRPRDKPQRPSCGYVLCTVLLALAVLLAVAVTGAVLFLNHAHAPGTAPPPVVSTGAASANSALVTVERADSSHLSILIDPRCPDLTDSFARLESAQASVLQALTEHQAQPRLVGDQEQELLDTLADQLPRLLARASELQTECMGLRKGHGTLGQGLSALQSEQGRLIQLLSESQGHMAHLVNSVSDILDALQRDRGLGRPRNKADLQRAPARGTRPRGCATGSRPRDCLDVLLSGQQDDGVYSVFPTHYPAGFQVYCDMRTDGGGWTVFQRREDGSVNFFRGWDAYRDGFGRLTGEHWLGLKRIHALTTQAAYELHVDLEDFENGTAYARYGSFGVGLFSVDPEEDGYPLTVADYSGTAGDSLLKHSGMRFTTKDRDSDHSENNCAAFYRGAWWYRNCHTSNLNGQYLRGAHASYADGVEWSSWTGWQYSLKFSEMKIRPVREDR
Description: Fluorescence polarization (FP) assay. Type of data set: binding. The following applies: RB conjugates 50 nM, 1% BSA/PBST, room temperature 30 min, Hill fit; recombinant full-length FIBCD1 from CHO cells. The procedure: experiment. Poly-A selective RNA-seq libraries were prepared using the NEB NextUltra II kit (New England Biolabs) and sequenced on an Illumina NextSeq500 with 2×75 pair-end reads. The obtained sequencing data was preprocessed using fastp, aligned using STAR, and counted using featureCounts. Differentially expressed genes were identified using DESeq2. The sequence data and analysis reports are deposited in the GEO repository (Accession # GSE202764) […]
U87 cells were incubated with 500 nM RB-EPP6 and YOYO, together with chondroitin sulfate (CSA) in complete media. After 1 h, trypsin was used to detach the cells. Cell pellets were collected by centrifugation. Fresh phenol-free medium was added to each condition. […]
Human FIBCD1 cDNA with an MYC-DDK tag was ordered from Origene (#RC206180) and was expressed using the mammalian expression system kit ExpiCHOTM (#A29133) as generally described by MAN0014337. […] The obtained full-length FIBCD1 was quantified using BCA.
Fluorescence polarization (FP) assay
Solutions of RB-EPPs (in 1% BSA/PBST) were added to different concentrations of full-length FIBCD1 (in 1% BSA/PBST). […] The solutions were incubated at room temperature for 30 minutes on an orbital shaker, and the fluorescence polarization values were quantified using a BioTek Synergy H1 plate reader, with an FP filter set (excitation 530/25, emission 590/35). […]
For orientation: In fluorescence polarisation assays a small probe gives low polarisation when free and higher when bound to something large.

The next data set concerns zebrafish larvae. Description: Biodistribution in zebrafish larvae, fluorescence microscopy. Type of data set: in vivo. The following applies: larvae 6 dpf, 1 h incubation; compared with free rhodamine dye and RB-GSQTH control.
For the next data set, the system named is U87 cells. Put plainly: Cell viability by YOYO staining, flow cytometry. The following applies: RB-EPP6 20 nM to 100 μM. Type of data set: cell-based, human. The procedure: Confocal imaging experiments
To image the cells, a Zeiss 880 inverted confocal laser scanning microscope (Carl Zeiss, Germany) was used. Image acquisition and analyses were carried out using the manufacturer’s software (ZEN, Carl Zeiss). Quantification of fluorescence intensity in single cells was performed using Fiji […]
Flow cytometry experiments
To perform flow cytometry experiments, a NovoCyte flow cytometer (NovoExpress) was used.
Quantification of fluorescence intensity was achieved using the Novoxpress software. Fifty thousand cells were analyzed for each condition. A green fluorescent dye used for DNA staining, YOYO, was included in all the flow cytometry experiments, serving as a cell live/dead indicator.
[…]
2 μL of RB-EPP (in DMSO) was added to the solution at a concentration of 500 μM. […] Samples were collected from both phases and quantified by Analytical HPLC separately. […]
(In general: A flow cytometer gives signals particle by particle.)

Another data set relates to MDCK cell monolayers. Type of data set: in vitro ADME, canine. The procedure:
FIBCD1 Lentiviral target, at different multiplicities of infection (MOI) levels. The cells were then incubated at 37 °C and 5% CO2. After 48 hours, the media was removed and replaced with fresh new media. Cell selection was carried out using G418 (Alfa Aesar) at 1 mg/mL for 7 days, and the surviving cells were collected and analyzed for FIBCD-KO efficiency by western blot. The best candidate was used for the RB-EPP6 uptake experiments described above.
200k MDCK cells were seeded in 200 μL of complete media in the apical side transwell insert (12-well 8 μm pore size Transwell-65 mm). In addition, 1 mL of complete growth media is added to the basolateral chamber. Six transwell inserts were prepared for a TAT peptide labeled with RB (RB-[…]), and six other inserts were prepared for RB-EPP6. The plate was incubated for 2-3 days at 37 °C with 5% CO2. The electrical resistance of the MDCK transwell inserts was measured using the EVOM Epithelial Voltohmmeter to monitor the integrity of tight junctions for the following two days. On day 3, serum-free media was used to wash both the apical (200 μL) and basolateral (1 mL) wells three times. […]
The assay was carried out in apical to basolateral directions. […] After that, 80 μL of the samples were collected from each chamber for RB fluorescence intensity reading using a Synergy […]

The test system of the next data set is Caco2. Put plainly: RB-EPP6 uptake in Caco2 cells. Type of data set: cell-based. As to conditions: RB conjugate.

Numbered stars: 1 amine (or outer) side, 2 acyl side, 3 side chain; on linkers, the order of the positions; unused ones are H or OH. Bridge positions count the residues as written; N and C are the ends. Square brackets hold non-standard residues; d marks the D form. Triazole bridges read from a SMILES are 1,4-linked. Peptide text beside a SMILES is read from it. * marks the point of attachment. RhodamineB = CCN(CC)c1ccc2c(-c3ccccc3C(=O)*)c3ccc(=[N+](CC)CC)cc-3oc2c1; Lys(N3) = [N-]=[N+]=NCCCC[C@H](N)C(=O)O; NMeGABA = CN(CCCC(=O)[*:2])[*:1]; Pra = C#CC[C@H](N)C(=O)O

`CCN(CC)c1ccc2c(-c3ccccc3C(=O)N(C)CCCC(=O)N[C@H]3Cc4cn(nn4)CCCC[C@@H](C(N)=O)NC(=O)[C@H](CO)NC(=O)[C@H](Cc4ccc(O)cc4)NC(=O)[C@H](Cc4ccc(O)cc4)NC(=O)[C@H](CO)NC(=O)[C@H](Cc4ccc(O)cc4)NC3=O)c3ccc(=[N+](CC)CC)cc-3oc2c1` [RB-EPP6, RB-cy(YSYYS)] (RhodamineB-[NMeGABA][Pra]YSYYS[Lys(N3)]-NH2; triazole 2-8): the Kd (commonly a measure of binding affinity in units of concentration) at full-length FIBCD1 was about 0.2 µM. Also, the “tissue accumulation in zebrafish larvae” value with zebrafish larvae was “preferentially accumulated in the olfactory pit and neuromasts”. Besides, the “effect on cell viability” value in the data set with U87 cells is given as “without affecting cell viability”. Also, in the data set on MDCK cell monolayers, the Papp was 5.25 × 10^–6 and the “Papp compared with RB-TAT47–57” value is listed as “more than twice”. Besides, the “uptake in Caco2 cells” value in the data set on Caco2 is recorded as “did not exhibit EPP6 uptake”.
